Measured values from patent US10952940B2, “Reagents and methods for mineralization of tooth enamel” (UNIVERSITY OF WASHINGTON, priority 2016, dated 2021).

What was measured:
[1] = Vicker's microhardness of mineralized tooth surface; design: species or system human; conditions: 10 kg applied load, on the surface, n ≥ 20
Description: In addition to nanoindenation measurements, microhardness was also performed on the surface to quantitatively assess the mechanical properties of the mineral layers with larger areas and volumes including the underlying enamel as a composite. Vicker's microhardness was performed on at room temperature using Vicker's indenter on a Wilson Hardness Tukon 1202 microhardness tester at 10 kg applied load (Illinois Tool Works, Lake Bluff, Ill.). At least 20 measurements per group were recorded for obtaining an average and statistical analysis.
Microhardness and nanoindentation differ in both loading range and measurement method as shown in the schematic in FIG. 14 and, for these reasons, both were used in the present work to assess the mechanical durability of the remineralized layers on artificially formed lesions on intact human teeth. In the case of microhardness (Vickers indenter), the measurement was a static one in that the load was applied, released and hardness was obtained by measuring the post-indentation projected area of the indented region (foot print). This method therefore provides information about only the plastically deformed response (plastic deformation) of the material. Furthermore the load applied in this study was 10 kg, lowest allowable by the instrument.

[2] = In vitro re-mineralization of tea-stained rat tooth using the peptide solution; conditions: tea-stained rat tooth quarter; peptide 10 min 37° C., then CaCl2/KH2PO4 16 hours
Description: Rat teeth (molars) were obtained from sacrificed rats (for example, Sprague Dawley rats, age 3 weeks or older) from animal facility, collected, and stored in 100% alcohol. Prior to the re-mineralization experiments the teeth were stored in 1% bleach for 24 hours. […] The teeth were then dried in an incubator in air at 37° C. for 3-6 hours to produce dry surface. The root site and section the crown were removed vertically using a diamond blade. Pictures were taken with camera attached to optical microscope. Exposed dentine sites in the one half of the sectioned tooth were etched with 35% phosphoric acid (Ultraetch™) for 60 seconds (to facilitate the stain intake). The etching gel was removed by rinsing the sample with distilled water for 3 minutes. The staining solution was prepared by boiling 2 g of tea in 100 ml of deionized water for 5 minutes, and then cooled down to room temperature and filtered. The tooth sample was soaked in the staining solution and incubated at 37° C. at 150 rpm for 24 hours. The tooth was removed from the staining solution and sonicated for 30 seconds in deionized water (sonic bath) to remove the excess amount of tea particles attached to tooth extrinsically. The one half of the sectioned tooth was cut vertically into half again to form two quarter sections of the tooth. A second set of pictures were taken with camera attached to optical microscope. […]

SYENSHSQAINVDRT [shADP5, 15-amino acid long amelogenin-derived peptide, shortened human ADP5]
Hardness (Vicker's microhardness) ([1]; listed as Group 6 (shADP5)): 140.6 +/− 11.3 HV10, MPa
Hardness (Vicker's microhardness) ([1]; listed as group 6): 140.6+11.3 HV10, MPa
tooth color compared with control [2]: lighter in color than the control
